The values that follow come from patent US20240099301A1, “Disinfecting and Sanitizing Composition, Method for Preparing the Composition and Use of Same” (SOCIEDAD QUÍMICA ECOLÓGICA SPA, priority 2021, published 2024).

Data set [1] in a line: Comparison of products: filmogenic properties. The format is physicochemical.
The nature of data set [2]: Comparison of products: stability. The format is physicochemical.
Data set [3] has as its system people. The data set can be described thus: Comparison of products: handling hazards (adverse effects), harm to people. On the set-up: species or system human.
A short description of data set [4]: Comparison of products: corrosivity (pH). Type of data set: physicochemical.
Data set [5] is described as follows: Comparison of products: duration of disinfectant effectiveness.
Data set [6] deals with people. In words: Comparison of products: application in the presence of people. The arrangement: species or system human.
The nature of data set [7]: Comparison of products: compatibility with detergents. Type of data set: physicochemical.
For data set [8] the following is noted: room temperature; cited from earlier work.

As for `OCl` [Sodium hypochlorite], the Filmogenic properties result in data set [1] was “No”. For the same compound, the Stability entry in data set [2] is given as “Not stable, chlorine solutions”. Also, the “Handling hazards (adverse effects)” value in data set [3] (contact with skin and eyes) is on record as “Liquid chlorine causes severe burns”. In addition, the “Handling hazards (adverse effects)” value in data set [3] (exposure to high concentrations) is “cause nausea and vomiting”. In addition, in data set [4], the “Corrosivity: irritancy” value is on record as “irritant” and the “Corrosivity: pH” value is listed as approximately 11. This compound showed a Duration of effectiveness in data set [5] of 1 days. Moreover, the “Application in the presence of people” value in data set [6] is “No and ventilation recommended”. For the same compound, in data set [7], the Compatibility with detergents entry is given as “Not compatible. Sodium hypochlorite”.
With `OO` [hydrogen peroxide], in data set [8], the “concentration with bactericidal activity” value is 6% and the “concentration with bacteriostatic activity” value was 3%.
